How the values were obtained:
[1] = Video-oculography (VOG), saccades; assay type: in vivo, human; details: day 1, all doses tested (250, 375, 500 mg)
From the text: Video-oculography (VOG) is a non-invasive, visual method of measuring horizontal, vertical, and torsional components involved in eye tracking, making use of a head-mounted mask equipped with cameras. VOG was used to measure 3 assessment metrics: horizontal saccades (movement of eyes towards a point of fixation), horizontal anti-saccades (movement of eyes away from a point of fixation), and horizontal and vertical pursuits (fixation of eyes on a moving object).
Binocular (both eyes) movements viewing were measured during the saccades test. During this 1-min trial, the visual target (small square) will jump from 0° to 10° to the right or to the left in a pseudorandom sequence. Duration of the target on screen vary pseudo-randomly from 1,500 to 2,000 ms to minimize anticipation of the subject. Then the visual target will be extinguished during 200 ms before the next move starting from the center. The participant is instructed to track the target on screen from center to side and from side to center without anticipation. The antisaccades test is identical to the saccades test in its procedure (with 10° jumps of the target) except that there is no extinction of the target. […]
Binocular movements viewing were measured during the pursuit tests. […]

[2] = Multiple ascending dose (MAD) study, PK (Example 1 Part 3); details: allopregnanolone and combined allopregnanolone
[3] = test system: salivary cortisol levels; experiment: Trier Social Stress Test (TSST), salivary cortisol (Example 2); assay type: in vivo, human
Experimental: A double-blind, placebo-controlled study was performed in 80 healthy participants to determine the effects of a single dose of Compound 1 in a validated and standardized behavioral challenge, the Trier Social Stress Test (TSST). The TSST is a reliable behavioral model used to examine the neurobiological response to acute stress in humans, whereby an acute stress (and associated acute stress response) is induced under experimentally controlled conditions. The TSST induces stress through public speaking. It incorporates social evaluation and unpredictability, by obliging the person to speak in front of an unresponsive audience and is further followed by a surprise mental arithmetic test. The TSST combines elements of a social-evaluative threat and uncontrollability to produce a consistent and robust physiological and psychological stress response in humans. On the day of the study, the participant was tasked with a speech prompt, for which they had 3 minutes to prepare. The participant was then required to present the speech for 5 minutes to a panel while under the pretense of being recorded. Following the speech, participants were given an unexpected mental arithmetic task. The TSST is more fully described in Allen A et al., Neurobiol. Stress (2017), February; 6:113-126.
The study included a validation cohort and a randomized cohort. The validation cohort (n=10) was given placebo for the purposes of validating the TSST and study endpoints. The randomized cohort […] were randomized and stratified by sex to placebo or 375 mg of Compound 1 in a 1:1 ratio. The cohorts are described in Table 14. An overview of the TSST study design is also depicted in FIG. 4C.
Compound 1 was formulated in combination with excipients Peceol™ (glyceryl monooleate), Kolliphor® RH40 (macrogolglycerol hydroxystearate) and super-refined sesame oil as a clear to yellow viscous solution. Each gram of formulation contains 300 mg of Compound 1, 189 mg of Peceol™, 336 mg Kolliphor® RH40, and 175 mg of super-refined sesame oil. To prepare the final dosage, the required quantity is manually filled into size 17.5 oblong capsules. The placebo contained vehicle only, i.e., the above formulation without Compound 1.
The objective of the study was to evaluate the efficacy of Compound 1 vs. placebo in blunting the response to endpoints measured during and after the TSST procedure. The primary efficacy endpoint was the change from baseline (before TSST procedure) to the peak (maximum change) in salivary cortisol levels as measured before, during, and after the TSST procedure. The primary outcome for determining this was salivary cortisol levels. The key secondary outcomes were be the Numerical Rating Scale (NRS) for stress, anxiety, fear, embarrassment, and excitement. Additional secondary outcomes were the State Trait Anxiety Index (STAI), and blood pressure. Safety and tolerability (i.e., incidence, severity, and duration of treatment-emergent adverse events (TEAEs), serious adverse events (SAEs), and incidence of other clinically relevant signs) were also monitored. Prior to the TSST, a post-dose sample was collected for pharmacokinetic analysis.
To normalize for food effects, participants were served a standardized meal to be consumed approximately 30 minutes prior to dosing with Compound 1. Compound 1 was administered with 240 mL of RT water ~3-4 hours prior to the start of the TSST.
Cortisol levels (including, for example, salivary cortisol levels) are a robust and sensitive marker of stress and the stress hormone response. Salivary cortisol concentrations were collected and measured throughout the study, with the primary endpoint being the maximum change from baseline (pre-TSST).

[4] = Columbia-Suicide Severity Rating Scale (C-SSRS); assay type: in vivo, human; details: parts 1-3
Experimental: The Columbia-Suicide Severity Rating Scale (C-SSRS) is a validated tool designed to quantify the severity of suicidal ideation and behavior. This scale was administered by individuals who have received training in its administration, as described in further detail at https://cssrs.columbia.edu/the-columbia-scale-c-ssrs/about-the-scale/.

[5] = Single ascending dose (SAD) study, PK (Example 1 Part 1)

## CCCCCCCC(=O)OCC(COC(=O)CCCCCCC)OC(=O)CC(C)CC(=O)OCOC(=O)O[C@@H]1CC[C@@]2(C)[C@@H](CC[C@@H]3[C@@H]2CC[C@]2(C)[C@@H](C(C)=O)CC[C@@H]32)C1 (stereo partly drawn) [Compound 1]
[1]
  time of maximum drop of saccade peak velocity: 4 hour post-dose
[2]; once daily
  accumulation upon multiple dosing: minimal accumulation
[2]; once daily administration
  time to steady state: Day 2 and Day 3
[3]; 375 mg
  decrease in salivary cortisol levels versus placebo, maximum non-transformed mean: ~ 2.2 ×
  time during which blunting of salivary cortisol was significantly different from placebo: up to 30 minutes post-end of TSST
  treatment effect size versus placebo, Cohen's d: 0.72
[3]; 375 mg, 10 minutes post-TSST
  reduction in salivary cortisol levels post-TSST: 62.8%
[3]; 375 mg, 60 minutes post-TSST
  reduction in salivary cortisol levels post-TSST: 45.5%
[3]; 375 mg, across all time points
  mean reduction in salivary cortisol levels post-TSST: 54.4%
[3]; single 375 mg oral dose ~3-4 hours before TSST
  blunting of increases in salivary cortisol levels, LSMean change from baseline (pre-TSST): partial blunting
[4]
  suicidal ideation or suicidal behavior: No subjects across all parts (1-3) reported any suicidal ideation or suicidal behavior
[5]; doses up to 560 mg
  dose proportionality of mean plasma allopregnanolone and combined allopregnanolone concentrations: increased at a dose proportional rate
[5]; human, oral
  oral bioavailability: high oral bioavailability
[5]; range of 750 to 1000 mg
  dose proportionality of several PK parameters: greater than dose-proportional increase
[5]; single ascending doses
  maximal concentrations and exposure values, combined allopregnanolone compared to allopregnanolone: at least 10 times higher

From US20260284079A1, “LIPID PRODRUGS OF ALLOPR[…] USES THEREOF” (Seaport Therapeutics, Inc., priority 2023, published 2026)
